Measurements reported in patent US12064480B2, “Immunigenic alpha-branched trehalose-diesters” (GLAXOSMITHKLINE BIOLOGICALS SA, priority 2018, dated 2024).

Assays:
[1] = system: mouse Raw cell line; experiment: Cytokine production (TNFα) from mouse Raw cells; type: cell-based; conditions: for TNFα potency in mouse cell line compared to human cells: mouse Raw cells vs human cells; for TNFα potency in mouse cell line compared to human cells / TNFα efficacy/peak levels relative to the other reference compounds / TNFα potency relative to sTDCM: FIG. 4A
Source text: The compounds were screened for their ability to induce TNFα from the mouse Raw cell line. An aim of this study was to determine if species specific differences in responses to compounds may be observed.

[2] = system: human PBMCs; experiment: Cytokine production from human PBMCs (Luminex multiplex panel); type: cell-based; conditions: human cells
Protocol: TDM (trehalose-6,6′-dimycolate) was obtained from Sigma. TDB (6,6′-dibehenoyl-α,α′-trehalose) was obtained from Avanti Polar Lipids. MMG (glycerol monomycolate) was prepared according to the procedure of Andersen et. al. sTDCM (synthetic trehalose dicorynomycolate) was obtained from Sigma-Aldrich (Catalog Number S3452).
PBMCs were obtained via leukapheresis from normal donors (AllCells, Berkeley, CA). Upon receipt PBMCs were repeatedly washed in 1×PBS and cryopreserved in freezing media (50% RPMI, 40% FCS, 10% DMSO) for future use. For assay, cells were immediately thawed into RPMI media, 10% heat inactivated FBS, 1× penicillin/streptomycin/glutamine (complete media), washed once and resuspended to the desired cell concentration in complete media. Cells were treated with the indicated compound concentrations by addition to plates containing serial dilution of the stock compound in diluent (50% isopropanol/50% isooctane). Compounds were applied, 20 ul final volume, to the bottom of a tissue culture plate and solvent was allowed to fully evaporate (i.e. plate coating) before cell addition.
Supernatants were harvested from treated cells 18-24 h post cell application. Supernatants were analyzed using a Luminex multiplex panel for analytes TNFα, IL-1β, IL-6, IFNγ, IL-12p70 and IL-23 per the manufacturer's instructions.

Question: With `CCCCCCCCCCCCCCCCCCCCCC(=O)OC[C@H]1O[C@H](O[C@H]2O[C@H](COC(=O)CCCCCCCCCCCCCCCCCCCCC)[C@@H](O)[C@H](O)[C@H]2O)[C@H](O)[C@@H](O)[C@@H]1O` [TDB, 6,6′-dibehenoyl-α,α′-trehalose] as the compound, how does the “TNFα potency in mouse cell line compared to human cells” value [1] read?
Answer: more potent in the mouse cell line as compared to human cells

Question: And the “TNFα efficacy/peak levels relative to the other reference compounds” value ([1]; mouse Raw cells)?
Answer: higher efficacy/peak levels

Question: And the “TNFα potency relative to sTDCM” value ([1]; mouse Raw cells)?
Answer: equivalent potency

Question: glycerol monomycolate [MMG] was tested. Which MMG/sTDCM potency difference [2] did it give?
Answer: ~10 fold

Question: And the “fold less potent than sTDCM” value ([1]; mouse Raw cells, TNFα)?
Answer: over 100 fold

Question: And the “TNFα induction (activity)” value ([1]; mouse Raw cells, FIG. 4)?
Answer: some activity

Question: And the “TNFα efficacy/peak levels relative to the other reference compounds” value ([1]; mouse Raw cells)?
Answer: equivalent levels

Question: What does the source list for trehalose-6,6′-dimycolate [TDM]?
Answer: TNFα potency in mouse cell line compared to human cells [1]: more potent in the mouse cell line as compared to human cells; TNFα efficacy/peak levels relative to the other reference compounds ([1]; mouse Raw cells): higher efficacy/peak levels; TNFα potency relative to sTDCM ([1]; mouse Raw cells): equivalent potency
